Active and inactive are the calls of the source. The rule behind the calls is not given here.
Key:
MCF7 [1] = assay: Induction of apoptosis in human MCF7 cells assessed as late apoptotic cells at 0.5 uM incubated for 48 hrs by Annexin V/FITC and PI staining based flow cytometry analysis (reference value: 2.5%); assay type: functional
4T1 [2] = assay: Antitumor activity against mouse 4T1 cells implanted in female BALB/c mouse model assessed as reduction in tumor volume at 50 mg/kg, po qd measured for 18 days in presence of chloroquine; assay type: functional, organism-based; details: time 18.0 day
[3] = Toxicity in female BALB/c mouse assessed as effect ALB level in serum at 25 to 50 mg/kg, po qd measured after 18 days by biochemical analysis; assay type: organism-based; details: in vivo, 432 h, dose 25-50 mg/kg, time 18 day
MCF7 [4] = assay: Induction of autophagy in human MCF7 cells assessed as increase in AMPK phosphorylation level at 0.5 to 2 uM incubated for 48 hrs by Western blotting analysis; assay type: functional, cell-based; details: dose 0.5-2 µM
MCF7 [5] = assay: Induction of autophagy in human MCF7 cells assessed as increase in LC3B expression at 0.5 to 2 uM by immunofluorescence analysis; assay type: functional, cell-based; details: dose 0.5-2 µM
MCF7 [6] = assay: Induction of autophagy in human MCF7 cells assessed as increase in acidic vesicular organelles at 0.5 to 2 uM by Acridine orange staining based analysis; assay type: functional, cell-based; details: dose 0.5-2 µM
[7] = Toxicity in female BALB/c mouse assessed as effect on lung at 25 to 50 mg/kg, po qd measured after 18 days by H and E staining based analysis; assay type: organism-based; details: in vivo, 432 h, dose 25-50 mg/kg, time 18 day
[8] = Toxicity in female BALB/c mouse assessed as effect GLU level in serum at 25 to 50 mg/kg, po qd measured after 18 days by biochemical analysis; assay type: organism-based; details: in vivo, 432 h, dose 25-50 mg/kg, time 18 day
4T1-Luc = assay: Anti-metastatic activity in mouse 4T1-Luc cells assessed as reduction in fluorescence intensity at 25 to 50 mg/kg, po measured after 16 days; assay type: functional, organism-based; details: dose 25-50 mg/kg, time 16.0 day
4T1 [9] = assay: Antitumor activity against mouse 4T1 cells implanted in female BALB/c mouse model assessed as increase in tumor cell necrosis at 50 mg/kg, po qd measured for 18 days in presence of chloroquine; assay type: functional, organism-based; details: time 18.0 day
[10] = Clearance in Sprague-Dawley rat at 1 mg/kg, iv by LC-MS/MS analysis; assay type: ADME, organism-based; details: in vivo
4T1 [11] = assay: Antitumor activity against mouse 4T1 cells implanted in female BALB/c mouse model assessed as increase in LC3B expression administered as po by immunohistochemical analysis; assay type: functional, organism-based; details: dose 25-50 mg/kg
MCF7 [12] = assay: Downregulation of vimentin expression in human MCF7 cells at 0.5 to 2 uM; assay type: functional, cell-based; details: dose 0.5-2 µM
[13] = target: Mitogen-activated protein kinase; ERK1/ERK2 (Homo sapiens) (UniProt P27361+P28482); assay: Binding affinity to ERK1/2 in human MCF7 cells assessed as protection of pronase-mediated protein degradation at 1 to 100 uM pre-incubated with compound for 1 hr followed by pronase digestion for 15 mins by DARTS analysis; assay type: cell-based; details: dose 1-100 µM, time 75.0 min
Mitogen-activated protein kinase; ERK1/ERK2 (Homo sapiens), sequence (P27361 whole entry, looked up): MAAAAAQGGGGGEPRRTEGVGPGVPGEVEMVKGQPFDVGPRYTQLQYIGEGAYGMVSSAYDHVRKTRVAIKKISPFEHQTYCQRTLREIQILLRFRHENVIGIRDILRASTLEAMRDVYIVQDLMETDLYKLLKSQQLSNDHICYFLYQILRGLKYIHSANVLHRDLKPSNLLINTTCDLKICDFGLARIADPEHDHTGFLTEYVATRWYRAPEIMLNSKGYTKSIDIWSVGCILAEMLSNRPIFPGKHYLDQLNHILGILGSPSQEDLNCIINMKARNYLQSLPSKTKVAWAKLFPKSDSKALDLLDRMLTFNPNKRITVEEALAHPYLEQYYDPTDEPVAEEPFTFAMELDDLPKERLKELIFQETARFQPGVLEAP
Mitogen-activated protein kinase; ERK1/ERK2 (Homo sapiens), sequence (P28482 whole entry, looked up): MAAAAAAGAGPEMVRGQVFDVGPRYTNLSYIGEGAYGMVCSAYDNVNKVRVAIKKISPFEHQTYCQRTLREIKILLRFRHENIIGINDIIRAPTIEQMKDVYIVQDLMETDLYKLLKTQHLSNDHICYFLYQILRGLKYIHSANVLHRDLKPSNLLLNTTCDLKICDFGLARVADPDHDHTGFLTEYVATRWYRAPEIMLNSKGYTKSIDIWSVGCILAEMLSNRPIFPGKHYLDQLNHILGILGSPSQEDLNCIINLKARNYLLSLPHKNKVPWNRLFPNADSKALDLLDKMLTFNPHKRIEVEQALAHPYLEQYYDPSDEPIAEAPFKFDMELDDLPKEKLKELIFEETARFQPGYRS

[14] = Cmax in Sprague-Dawley rat at 10 mg/kg, po by LC-MS/MS analysis; assay type: ADME, organism-based; details: in vivo
[15] = target: Mitogen-activated protein kinase 3 (Homo sapiens, UniProt P27361); assay: Binding affinity to ERK1 (unknown origin) assessed as dissociation constant by MST analysis
Mitogen-activated protein kinase 3, sequence (P27361 whole entry): as the sequence (P27361 whole entry, looked up) above

MCF7 [16] = assay: Induction of apoptosis in human MCF7 cells assessed as early apoptotic cells at 1 uM incubated for 48 hrs in presence of chloroquine by Annexin V/FITC and PI staining based flow cytometry analysis (reference value: 8.72%); assay type: functional
MCF7 [17] = assay: Upregulation of C-caspase3 protein expression in human MCF-7 cells at 1 uM incubated for 6 hrs in presence of 3-methyladenine by Western blot analysis; assay type: functional, cell-based
[18] = Toxicity in female BALB/c mouse assessed as effect on kidney at 25 to 50 mg/kg, po qd measured after 18 days by H and E staining based analysis; assay type: organism-based; details: in vivo, 432 h, dose 25-50 mg/kg, time 18 day
MCF7 [19] = assay: Inhibition of colony formation in human MCF7 cells harbouring ERK2 knockout at 1 uM incubated for 48 hrs by crystal violet staining based microscopic analysis; assay type: functional, cell-based
MCF7 [20] = assay: Antiproliferative activity against human MCF7 cells harbouring ERK2 knockout incubated for 48 hrs by CCK-8 method; assay type: functional, cell-based
[21] = Toxicity in female BALB/c mouse assessed as change in body weight at 50 mg/kg, po qd measured after 18 days in presence of chloroquine; assay type: organism-based; details: in vivo, 432 h, time 18 day
4T1 [22] = assay: Antitumor activity against mouse 4T1 cells implanted in female BALB/c mouse model assessed as reduction in number of Ki67-positive proliferative cells at 25 to 50 mg/kg, po qd by immunohistochemical analysis; assay type: functional, organism-based; details: dose 25-50 mg/kg
[23] = target: Ribosomal protein S6 kinase alpha-1 (Homo sapiens, UniProt Q15418); assay: Inhibition of human RSK1 at 10000 nM by DiscoverX KINOMEscan assay relative to control
Ribosomal protein S6 kinase alpha-1, sequence (Q15418 whole entry): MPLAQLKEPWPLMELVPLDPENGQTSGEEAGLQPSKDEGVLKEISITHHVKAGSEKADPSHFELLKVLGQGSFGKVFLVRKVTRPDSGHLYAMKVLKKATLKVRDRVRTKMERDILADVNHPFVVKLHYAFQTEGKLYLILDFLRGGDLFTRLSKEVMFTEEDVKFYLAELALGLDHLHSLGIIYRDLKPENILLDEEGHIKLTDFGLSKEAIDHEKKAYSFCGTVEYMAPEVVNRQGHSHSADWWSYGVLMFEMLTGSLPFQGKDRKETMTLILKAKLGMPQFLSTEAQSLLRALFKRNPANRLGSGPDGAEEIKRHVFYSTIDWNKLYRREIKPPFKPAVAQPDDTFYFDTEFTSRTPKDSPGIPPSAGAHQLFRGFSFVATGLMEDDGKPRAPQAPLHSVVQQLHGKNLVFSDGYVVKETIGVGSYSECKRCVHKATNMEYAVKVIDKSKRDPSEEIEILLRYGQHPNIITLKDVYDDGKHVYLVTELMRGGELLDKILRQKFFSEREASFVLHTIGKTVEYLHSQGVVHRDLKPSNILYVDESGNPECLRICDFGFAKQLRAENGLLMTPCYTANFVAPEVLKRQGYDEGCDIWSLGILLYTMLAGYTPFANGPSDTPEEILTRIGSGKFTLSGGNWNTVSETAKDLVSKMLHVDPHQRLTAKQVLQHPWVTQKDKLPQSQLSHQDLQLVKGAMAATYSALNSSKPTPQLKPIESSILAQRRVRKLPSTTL

MCF7 [24] = assay: Induction of apoptosis in human MCF7 cells assessed as late apoptotic cells at 1 uM incubated for 48 hrs in presence of 3-methyladenine by Annexin V/FITC and PI staining based flow cytometry analysis (reference value: 6.21%); assay type: functional
MCF7 [25] = assay: Induction of apoptosis in human MCF7 cells assessed as late apoptotic cells at 2 uM incubated for 48 hrs by Annexin V/FITC and PI staining based flow cytometry analysis (reference value: 2.5%); assay type: functional
[26] = target: Non-receptor tyrosine-protein kinase TYK2 (Homo sapiens) (UniProt P29597); assay: Inhibition of human TYK2 at 10000 nM by DiscoverX KINOMEscan assay relative to control
Non-receptor tyrosine-protein kinase TYK2 (Homo sapiens), sequence (P29597 whole entry): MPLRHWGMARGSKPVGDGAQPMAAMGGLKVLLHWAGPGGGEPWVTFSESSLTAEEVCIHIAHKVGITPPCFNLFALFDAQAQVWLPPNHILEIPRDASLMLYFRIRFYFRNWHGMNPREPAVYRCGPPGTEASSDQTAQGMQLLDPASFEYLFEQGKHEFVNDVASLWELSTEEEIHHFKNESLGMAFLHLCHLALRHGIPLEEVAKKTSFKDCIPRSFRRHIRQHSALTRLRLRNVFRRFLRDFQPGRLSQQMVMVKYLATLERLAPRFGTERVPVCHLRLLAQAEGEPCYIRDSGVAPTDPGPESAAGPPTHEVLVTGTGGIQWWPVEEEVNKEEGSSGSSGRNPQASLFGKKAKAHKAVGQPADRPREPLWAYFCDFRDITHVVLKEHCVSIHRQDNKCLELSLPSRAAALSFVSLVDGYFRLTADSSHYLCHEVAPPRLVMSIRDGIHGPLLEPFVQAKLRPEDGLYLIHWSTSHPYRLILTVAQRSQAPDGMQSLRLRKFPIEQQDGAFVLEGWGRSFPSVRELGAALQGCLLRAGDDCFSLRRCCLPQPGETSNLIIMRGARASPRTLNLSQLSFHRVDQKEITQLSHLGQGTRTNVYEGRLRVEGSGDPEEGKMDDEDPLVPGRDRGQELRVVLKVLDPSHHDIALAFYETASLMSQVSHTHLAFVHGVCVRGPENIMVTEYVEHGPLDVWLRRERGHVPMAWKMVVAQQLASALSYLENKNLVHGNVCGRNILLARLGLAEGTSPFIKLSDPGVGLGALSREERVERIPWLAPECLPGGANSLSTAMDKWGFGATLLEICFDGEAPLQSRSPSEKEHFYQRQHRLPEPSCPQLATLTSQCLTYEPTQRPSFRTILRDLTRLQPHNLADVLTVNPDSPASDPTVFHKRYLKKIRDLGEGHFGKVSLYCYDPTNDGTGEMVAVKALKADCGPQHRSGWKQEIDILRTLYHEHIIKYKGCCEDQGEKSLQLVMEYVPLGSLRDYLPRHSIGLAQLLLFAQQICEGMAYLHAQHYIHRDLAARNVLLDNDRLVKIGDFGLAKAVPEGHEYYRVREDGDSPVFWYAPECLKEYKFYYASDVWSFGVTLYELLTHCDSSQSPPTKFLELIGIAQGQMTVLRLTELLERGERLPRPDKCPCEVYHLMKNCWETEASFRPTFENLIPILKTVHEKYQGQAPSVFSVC

[27] = Toxicity in female BALB/c mouse assessed as effect on tumor at 25 to 50 mg/kg, po qd measured after 18 days by H and E staining based analysis; assay type: organism-based; details: in vivo, 432 h, dose 25-50 mg/kg, time 18 day
MCF7 [28] = assay: Downregulation of p90RSK phosphorylation expression in human MCF7 cells at 0.5 to 2 uM measured after 30 mins to 4 hrs by Western blot analysis; assay type: functional, cell-based; details: dose 0.5-2 µM, time 30-240 min
[29] = Toxicity in female BALB/c mouse assessed as effect on heart at 50 mg/kg, po qd measured after 18 days in presence of chloroquine by H and E staining based analysis; assay type: organism-based; details: in vivo, 432 h, time 18 day
MCF7 [30] = assay: Induction of apoptosis in human MCF7 cells assessed as increase in PARP1 level at 0.5 to 2 uM by Western blot analysis; assay type: functional, cell-based; details: dose 0.5-2 µM
Mitochondrial membrane = assay: Induction of mitochondrial membrane potential loss in human MCF7 cells assessed as increase in JC-1 monomers by measuring increase in green fluorescence at 1 uM by flow cytometry analysis (reference value: 38.0%); assay type: cell membranes
MCF7 [31] = assay: Induction of apoptosis in human MCF7 cells assessed as early apoptotic cells at 1 uM incubated for 48 hrs by Annexin V/FITC and PI staining based flow cytometry analysis (reference value: 1.1%); assay type: functional
MCF7 [32] = assay: Inhibition of proliferation in human MCF7 cells at 0.5 to 2 uM incubated for 48 hrs by EdU incorporation assay; assay type: functional, cell-based; details: dose 0.5-2 µM
MCF7 [33] = assay: Induction of apoptosis in human MCF7 cells assessed as early apoptotic cells at 1 uM incubated for 48 hrs in presence of 3-methyladenine by Annexin V/FITC and PI staining based flow cytometry analysis (reference value: 8.14%); assay type: functional

clearance [10]: 15.2 mL/min/kg
Activity [13]: Active
Cmax [14]: 770 ng/mL
Kd [15]: 159 nM
inhibition [23]: 8%
inhibition [26]: 14%
Activity (Mitochondrial membrane): 48.9%
SMILES: O=C(Nc1cc(C(F)(F)F)cc(C(F)(F)F)c1)N[C@@H](Cc1ccccc1)Cn1c[n+](Cc2ccc3ccccc3c2)c2ccccc21.[Br-]
Activity (MCF7 [1]): 7.8%
Activity (4T1 [2]): Active
Activity [3]: Non-toxic
Activity (MCF7 [4]): Active
Activity (MCF7 [5]): Dose-dependent-effect
Activity (MCF7 [6]): Active
Activity [7]: Non-toxic
Activity [8]: Non-toxic
Activity (4T1-Luc): Active
Activity (4T1 [9]): Active
Activity (4T1 [11]): Dose-dependent-effect
Activity (MCF7 [12]): Active
Activity (MCF7 [16]): 4.92%
Activity (MCF7 [17]): Active
Activity [18]: Non-toxic
inhibition (MCF7 [19]): inactive
Activity (MCF7 [20]): Not active; Compound Showed Less Sensitivity Response
Activity [21]: Non-toxic
Activity (4T1 [22]): Active
Activity (MCF7 [24]): 25.1%
Activity (MCF7 [25]): 14.8%
Activity [27]: Non-toxic
Activity (MCF7 [28]): Active
Activity [29]: Non-toxic
Activity (MCF7 [30]): Active
Activity (MCF7 [31]): 11.6%
inhibition (MCF7 [32]): Active
Activity (MCF7 [33]): 3.81%

— ChEMBL document CHEMBL6153138, “Discovery of Novel Aromatic Urea-Imidazole Salt Derivatives for Cancer Therapy via Targeting ERK1/2” (J Med Chem, 2025)
